Results on three molecules are retold here after PMC2981568 (PLoS ONE, 2010).

For data set [1], the target named is T1, MtbPRPPase (phosphoribosylpyrophosphate synthetase) (Mycobacterium tuberculosis, UniProt P9WKE3).
T1 construct: gene prs
The data set can be described thus: biochemical.

Data set [2] has as its target T1, MtbPRPPase (phosphoribosylpyrophosphate synthetase). The data set can be described thus: […]; inhibition curve and steady-state kinetics ([…] Pi; IC50 […] at […] Pi). Format: biochemical.
The data set “SEC” concerns the molecule itself. The experiment in a line: SEC. For orientation: In gel filtration, larger molecules generally elute earlier.

As usually defined, the IC50 is the point on the concentration scale where inhibition reaches its midpoint. Read a high IC50 as weaker potency. For orientation: stoichiometry N means the number of molecules, sites or subunits per partner or assembly.

`Nc1nc2c(ncn2[C@@H]2O[C@H](COP(=O)(O)OP(=O)(O)O)[C@@H](O)[C@H]2O)c(=O)[nH]1` [GDP] showed a concentration for half-maximal inhibition (IC50) in data set [1] of over 5000 µM.
The molecule `Nc1ncnc2c1ncn2[C@@H]1O[C@H](COP(=O)(O)OP(=O)(O)O)[C@@H](O)[C@H]1O` [ADP] came in with an IC50 in data set [2] of 400 µM.

B1: Mycobacterium tuberculosis phosphoribosylpyrophosphate synthetase (enzyme)
chain: MSHDWTDNRKNLMLFAGRAHPELAEQVAKELDVHVTSQDAREFANGEIFVRFHESVRGCDAFVLQSCPAPVNRWLMEQLIMIDALKRGSAKRITAVMPFYPYARQDKKHRGREPISARLIADLLKTAGADRIVTVDLHTDQIQGFFDGPVDHMRGQNLLTGYIRDNYPDGNMVVVSPDSGRVRIAEKWADALGGVPLAFIHKTRDPRVPNQVVSNRVVGDVAGRTCVLIDDMIDTGGTIAGAVALLHNDGAGDVIIAATHGVLSDPAAQRLASCGAREVIVTNTLPIGEDKRFPQLTVLSIAPLLASTIRAVFENGSVTGLFDGDA
notes: also called MtbPRPPase; M. tuberculosis PRPPase; not shown: His6, N-terminal, kept
B1: in the data set “SEC”, the “stoichiometry N” value worked out at 6.
